Patent US20240132431A1, “METHOD FOR ALKYLATING ACIDIC FUNCTIONAL GROUP” (Chugai Seiyaku Kabushiki Kaisha, priority 2021, published 2024)

Molecular target: T1, Bcl-2 protein (Recombinant Human Bcl-2 Protein) (Homo sapiens, UniProt P10415)
T1 construct: purchased Novus NBP2-34889
Assay: Binding evaluation of mixture library compounds to Bcl-2 using AS-MS (affinity selection mass spectrometry)
Details: AS-MS on the mixture of 1200 library compounds, ASMS Ratio(%)=(A−C)/B×100; for ASMS ratio (%) n = 1: replicate n = 1; for ASMS ratio (%) n = 2: replicate n = 2
How it was run: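 ASMS Ratio (%) was calculated as (A−C)/B×100, where A is the protein sample after SEC, B the protein-free sample without SEC and C the protein-free sample after SEC. Each compound was at […] in a 1200-member pool with 20 μM Bcl-2, incubated 1 h at 23° C.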

T1 sequence (P10415 whole entry): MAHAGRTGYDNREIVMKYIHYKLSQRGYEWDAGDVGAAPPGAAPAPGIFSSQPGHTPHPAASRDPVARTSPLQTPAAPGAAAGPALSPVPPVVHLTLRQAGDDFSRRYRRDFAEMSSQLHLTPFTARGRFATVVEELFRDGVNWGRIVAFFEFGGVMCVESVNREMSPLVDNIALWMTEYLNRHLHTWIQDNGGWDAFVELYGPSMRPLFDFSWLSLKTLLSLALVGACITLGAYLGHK

Q: `CCOc1cncc(-c2ccc(C(=O)N3CCN(c4ccc(C(=O)N(C)CC56CC7CC(CC(C7)C5)C6)cc4)CC3)cc2F)c1` [B3A028-01, N-(1-Adamantylmethyl)-4-[4-[4-(5-ethoxypyridin-3-yl)-3-fluorobenzoyl]piperazin-1-yl]-N-methylbenzamide] was tested. Which “ASMS ratio (%) n = 1” value did it give?
A: 9.8%

Q: What about the “ASMS ratio (%) n = 2” value of the same compound?
A: 1.6%

Q: For `CCOc1cccc(C#Cc2ccccc2C(=O)N2CCN(c3ccc(C(=O)N(C)CC45CC6CC(CC(C6)C4)C5)cc3)CC2)c1` [B3A029-01, N-(1-Adamantylmethyl)-4-[4-[2-[2-(3-ethoxyphenyl)ethynyl]benzoyl]piperazin-1-yl]-N-methylbenzamide], which “ASMS ratio (%) n = 1” value is on record?
A: 0.0%

Q: What about the “ASMS ratio (%) n = 2” value of the same compound?
A: 0.0%

Q: How did the “ASMS ratio (%) n = 1” value turn out when `CCOc1cncc(C#Cc2ccccc2C(=O)N2CCN(c3ccc(C(=O)N(C)CC45CC6CC(CC(C6)C4)C5)cc3)CC2)c1` [B3A030-01, N-(1-Adamantylmethyl)-4-[4-[2-[2-(5-ethoxypyridin-3-yl)ethynyl]benzoyl]piperazin-1-yl]-N-methylbenzamide] was run?
A: 8.4%

Q: And the “ASMS ratio (%) n = 2” value?
A: −15.2%

Q: With `CCOc1cccc(C#Cc2cncc(C(=O)N3CCN(c4ccc(C(=O)N(C)CC56CC7CC(CC(C7)C5)C6)cc4)CC3)c2)c1` [B3A031-01, N-(1-Adamantylmethyl)-4-[4-[5-[2-(3-ethoxyphenyl)ethynyl]pyridine-3-carbonyl]piperazin-1-yl]-N-methylbenzamide] as the compound, how does the “ASMS ratio (%) n = 1” value read?
A: 8.4%

Q: What about the “ASMS ratio (%) n = 2” value of the same compound?
A: −15.2%

Q: With `CCOc1cncc(C#Cc2cncc(C(=O)N3CCN(c4ccc(C(=O)N(C)CC56CC7CC(CC(C7)C5)C6)cc4)CC3)c2)c1` [B3A032-01, N-(1-Adamantylmethyl)-4-[4-[5-[2-(5-ethoxypyridin-3-yl)ethynyl]pyridine-3-carbonyl]piperazin-1-yl]-N-methylbenzamide] as the compound, how does the “ASMS ratio (%) n = 1” value read?
A: 9.1%

Q: What about the “ASMS ratio (%) n = 2” value of the same compound?
A: −5.1%

Q: Which results are given for `CCOc1cccc(-c2ccccc2CCC(=O)N2CCN(c3ccc(C(=O)N(C)CC45CC6CC(CC(C6)C4)C5)cc3)CC2)c1` [B3A033-01, N-(1-Adamantylmethyl)-4-[4-[3-[2-(3-ethoxyphenyl)phenyl]propanoyl]piperazin-1-yl]-N-methylbenzamide]?
A: ASMS ratio (%) n = 1: 1.1%; ASMS ratio (%) n = 2: −0.6%

Q: `CCOc1cncc(-c2ccccc2CCC(=O)N2CCN(c3ccc(C(=O)N(C)CC45CC6CC(CC(C6)C4)C5)cc3)CC2)c1` [B3A034-01, N-(1-Adamantylmethyl)-4-[4-[3-[2-(5-ethoxypyridin-3-yl)phenyl]propanoyl]piperazin-1-yl]-N-methylbenzamide] was tested. Which “ASMS ratio (%) n = 1” value did it give?
A: 1.3%

Q: What about the “ASMS ratio (%) n = 2” value of the same compound?
A: −0.6%

Q: `CCOc1cccc(-c2ccc(C(=O)N3CCN(c4ccc(C(=O)N(C)CC56CC7CC(CC(C7)C5)C6)cc4)CC3)c3ccccc23)c1` [B3A035-01, N-(1-Adamantylmethyl)-4-[4-[4-(3-ethoxyphenyl)naphthalene-1-carbonyl]piperazin-1-yl]-N-methylbenzamide] was tested. Which “ASMS ratio (%) n = 1” value did it give?
A: 9.7%

Q: And the “ASMS ratio (%) n = 2” value?
A: 4.4%

Q: Which “ASMS ratio (%) n = 1” value does the source give for `CCOc1cncc(-c2ccc(C(=O)N3CCN(c4ccc(C(=O)N(C)CC56CC7CC(CC(C7)C5)C6)cc4)CC3)c3ccccc23)c1` [B3A036-01, N-(1-Adamantylmethyl)-4-[4-[4-(5-ethoxypyridin-3-yl)naphthalene-1-carbonyl]piperazin-1-yl]-N-methylbenzamide] here?
A: 2.8%

Q: What about the “ASMS ratio (%) n = 2” value of the same compound?
A: −3.3%

Q: With `CCOc1cccc(-c2cc(C(=O)N3CCN(c4ccc(C(=O)N(C)CC56CC7CC(CC(C7)C5)C6)cc4)CC3)cc(C(C)(C)C)c2)c1` [B3A037-01, N-(1-Adamantylmethyl)-4-[4-[3-tert-butyl-5-(3-ethoxyphenyl)benzoyl]piperazin-1-yl]-N-methylbenzamide] as the compound, how does the “ASMS ratio (%) n = 1” value read?
A: 0.0%

Q: What about the “ASMS ratio (%) n = 2” value of the same compound?
A: 0.0%

Q: `CCOc1cncc(-c2cc(C(=O)N3CCN(c4ccc(C(=O)N(C)CC56CC7CC(CC(C7)C5)C6)cc4)CC3)cc(C(C)(C)C)c2)c1` [B3A038-01, N-(1-Adamantylmethyl)-4-[4-[3-tert-butyl-5-(5-ethoxypyridin-3-yl)benzoyl]piperazin-1-yl]-N-methylbenzamide] was tested. Which “ASMS ratio (%) n = 1” value did it give?
A: 2.5%

Q: What about the “ASMS ratio (%) n = 2” value of the same compound?
A: −2.9%

Q: How did the “ASMS ratio (%) n = 1” value turn out when `CCOc1cccc(-c2cc(C(=O)N3CCN(c4ccc(C(=O)N(C)CC56CC7CC(CC(C7)C5)C6)cc4)CC3)cc(C(F)(F)F)c2)c1` [B3A039-01, N-(1-Adamantylmethyl)-4-[4-[3-(3-ethoxyphenyl)-5-(trifluoromethyl)benzoyl]piperazin-1-yl]-N-methylbenzamide] was run?
A: 3.8%

Q: And the “ASMS ratio (%) n = 2” value?
A: 0.0%

Q: How did the “ASMS ratio (%) n = 1” value turn out when `CCOc1cncc(-c2cc(C(=O)N3CCN(c4ccc(C(=O)N(C)CC56CC7CC(CC(C7)C5)C6)cc4)CC3)cc(C(F)(F)F)c2)c1` [B3A040-01, N-(1-Adamantylmethyl)-4-[4-[3-(5-ethoxypyridin-3-yl)-5-(trifluoromethyl)benzoyl]piperazin-1-yl]-N-methylbenzamide] was run?
A: 3.5%

Q: And the “ASMS ratio (%) n = 2” value?
A: −6.7%

Q: `CCOc1cccc(C#Cc2cc(C(=O)N3CCN(c4ccc(C(=O)N(C)CC56CC7CC(CC(C7)C5)C6)cc4)CC3)cc(C(F)(F)F)c2)c1` [B3A041-01, N-(1-Adamantylmethyl)-4-[4-[3-[2-(3-ethoxyphenyl)ethynyl]-5-(trifluoromethyl)benzoyl]piperazin-1-yl]-N-methylbenzamide] was tested. Which “ASMS ratio (%) n = 2” value did it give?
A: 425.9%

Q: Which “ASMS ratio (%) n = 1” value does the source give for `CCOc1cncc(C#Cc2cc(C(=O)N3CCN(c4ccc(C(=O)N(C)CC56CC7CC(CC(C7)C5)C6)cc4)CC3)cc(C(F)(F)F)c2)c1` [B3A042-01, N-(1-Adamantylmethyl)-4-[4-[3-[2-(5-ethoxypyridin-3-yl)ethynyl]-5-(trifluoromethyl)benzoyl]piperazin-1-yl]-N-methylbenzamide] here?
A: −0.2%

Q: And the “ASMS ratio (%) n = 2” value?
A: −1.2%

Q: `CCOc1cccc(-c2cnn(-c3cc(C(=O)N4CCN(c5ccc(C(=O)N(C)CC67CC8CC(CC(C8)C6)C7)cc5)CC4)cc(C(F)(F)F)c3)c2)c1` [B3A043-01, N-(1-Adamantylmethyl)-4-[4-[3-[4-(3-ethoxyphenyl)pyrazol-1-yl]-5-(trifluoromethyl)benzoyl]piperazin-1-yl]-N-methylbenzamide] was tested. Which “ASMS ratio (%) n = 1” value did it give?
A: 0.5%

Q: And the “ASMS ratio (%) n = 2” value?
A: −0.3%

Q: How did the “ASMS ratio (%) n = 1” value turn out when `CCOc1cncc(-c2cnn(-c3cc(C(=O)N4CCN(c5ccc(C(=O)N(C)CC67CC8CC(CC(C8)C6)C7)cc5)CC4)cc(C(F)(F)F)c3)c2)c1` [B3A044-01, N-(1-Adamantylmethyl)-4-[4-[3-[4-(5-ethoxypyridin-3-yl)pyrazol-1-yl]-5-(trifluoromethyl)benzoyl]piperazin-1-yl]-N-methylbenzamide] was run?
A: 12.3%

Q: What about the “ASMS ratio (%) n = 2” value of the same compound?
A: −12.4%

Q: For `CCOc1cccc(-c2ccccc2CN2CCN(c3ccc(C(=O)N(C)CC45CC6CC(CC(C6)C4)C5)cc3)CC2)c1` [B3A045-01, N-(1-Adamantylmethyl)-4-[4-[[2-(3-ethoxyphenyl)phenyl]methyl]piperazin-1-yl]-N-methylbenzamide], which “ASMS ratio (%) n = 1” value is on record?
A: 3.2%

Q: And the “ASMS ratio (%) n = 2” value?
A: 2.5%

Q: How did the “ASMS ratio (%) n = 1” value turn out when `CCOc1cncc(-c2ccccc2CN2CCN(c3ccc(C(=O)N(C)CC45CC6CC(CC(C6)C4)C5)cc3)CC2)c1` [B3A046-01, N-(1-Adamantylmethyl)-4-[4-[[2-(5-ethoxypyridin-3-yl)phenyl]methyl]piperazin-1-yl]-N-methylbenzamide] was run?
A: 1.5%

Q: And the “ASMS ratio (%) n = 2” value?
A: 3.6%

Q: Which “ASMS ratio (%) n = 1” value does the source give for `CCOc1cccc(-c2ccc(CN3CCN(c4ccc(C(=O)N(C)CC56CC7CC(CC(C7)C5)C6)cc4)CC3)cc2C)c1` [B3A047-01, N-(1-Adamantylmethyl)-4-[4-[[4-(3-ethoxyphenyl)-3-methylphenyl]methyl]piperazin-1-yl]-N-methylbenzamide] here?
A: 1.8%

Q: What about the “ASMS ratio (%) n = 2” value of the same compound?
A: −5.9%

Q: How did the “ASMS ratio (%) n = 1” value turn out when `CCOc1cncc(-c2ccc(CN3CCN(c4ccc(C(=O)N(C)CC56CC7CC(CC(C7)C5)C6)cc4)CC3)cc2C)c1` [B3A048-01, N-(1-Adamantylmethyl)-4-[4-[[4-(5-ethoxypyridin-3-yl)-3-methylphenyl]methyl]piperazin-1-yl]-N-methylbenzamide] was run?
A: 7.3%

Q: What about the “ASMS ratio (%) n = 2” value of the same compound?
A: −8.8%

Q: Which results are given for `CCOc1cncc(-c2ccc(CN3CCN(c4ccc(C(=O)N(C)CC56CC7CC(CC(C7)C5)C6)cc4)CC3)c(CC)c2)c1` [B3A050-01, N-(1-Adamantylmethyl)-4-[4-[[4-(5-ethoxypyridin-3-yl)-2-ethylphenyl]methyl]piperazin-1-yl]-N-methylbenzamide]?
A: ASMS ratio (%) n = 1: 6.1%; ASMS ratio (%) n = 2: −4.3%

Q: What does the source list for `CCOc1cccc(-c2ccc(CN3CCN(c4ccc(C(=O)N(C)CC56CC7CC(CC(C7)C5)C6)cc4)CC3)cc2F)c1` [B3A051-01, N-(1-Adamantylmethyl)-4-[4-[[4-(3-ethoxyphenyl)-3-fluorophenyl]methyl]piperazin-1-yl]-N-methylbenzamide]?
A: ASMS ratio (%) n = 1: 21.3%; ASMS ratio (%) n = 2: −4.2%

Q: `CCOc1cccc(-c2ccc(CN3CCN(c4ccc(C(=O)N(C)CC56CC7CC(CC(C7)C5)C6)cc4)CC3)c(OC)c2)c1` [B3A053-01, N-(1-Adamantylmethyl)-4-[4-[[4-(3-ethoxyphenyl)-2-methoxyphenyl]methyl]piperazin-1-yl]-N-methylbenzamide] was tested. Which “ASMS ratio (%) n = 1” value did it give?
A: 12.5%

Q: What about the “ASMS ratio (%) n = 2” value of the same compound?
A: 9.9%

Q: Which “ASMS ratio (%) n = 1” value does the source give for `CCOc1cncc(-c2ccc(CN3CCN(c4ccc(C(=O)N(C)CC56CC7CC(CC(C7)C5)C6)cc4)CC3)c(OC)c2)c1` [B3A054-01, N-(1-Adamantylmethyl)-4-[4-[[4-(5-ethoxypyridin-3-yl)-2-methoxyphenyl]methyl]piperazin-1-yl]-N-methylbenzamide] here?
A: 0.0%

Q: What about the “ASMS ratio (%) n = 2” value of the same compound?
A: 0.0%

Q: Which “ASMS ratio (%) n = 1” value does the source give for `CCOc1cccc(-c2cc(CN3CCN(c4ccc(C(=O)N(C)CC56CC7CC(CC(C7)C5)C6)cc4)CC3)cc(OCC)c2)c1` [B3A055-01, N-(1-Adamantylmethyl)-4-[4-[[3-ethoxy-5-(3-ethoxyphenyl)phenyl]methyl]piperazin-1-yl]-N-methylbenzamide] here?
A: 10.8%

Q: And the “ASMS ratio (%) n = 2” value?
A: −12.7%
